Measured values: the NIST ThermoML archive (doi:10.1021/je600557n)
Numbers after ± are expanded uncertainties.

What was measured:
[1] = 101.33 kPa, Liquid
[2] = molar heat capacity at constant pressure; conditions: 101.33 kPa, Liquid, Small sample (50 mg) DSC
[3] = refractive index (Na D-line) (dimensionless); conditions: 101.33 kPa, Liquid, Standard Abbe refractometry

mass density ([1]; 293.15 K)	viscosity ([1]; 293.15 K)	mass density ([1]; 303.15 K)	viscosity ([1]; 303.15 K)	mass density ([1]; 313.15 K)	viscosity ([1]; 313.15 K)	molar heat capacity at constant pressure ([2]; 288.15 K)	molar heat capacity at constant pressure ([2]; 293.15 K)	molar heat capacity at constant pressure ([2]; 298.15 K)	molar heat capacity at constant pressure ([2]; 303.15 K)	molar heat capacity at constant pressure ([2]; 308.15 K)	molar heat capacity at constant pressure ([2]; 313.15 K)	molar heat capacity at constant pressure ([2]; 318.15 K)	molar heat capacity at constant pressure ([2]; 323.15 K)	refractive index ([3]; 293.15 K)	refractive index ([3]; 303.15 K)	refractive index ([3]; 313.15 K)	Compound
853.15 ± 0.68 kg/m3	0.492 ± 0.008 mPa·s	842.8 ± 0.7 kg/m3	0.443 ± 0.008 mPa·s	832.44 ± 0.72 kg/m3	0.416 ± 0.007 mPa·s	153.5 ± 2.4 J/K/mol	155.3 ± 2.4 J/K/mol	156.9 ± 2.4 J/K/mol	158.7 ± 2.5 J/K/mol	160.2 ± 2.5 J/K/mol	162.1 ± 2.5 J/K/mol	164.2 ± 2.5 J/K/mol	166.2 ± 2.6 J/K/mol	1.4085 ± 0.0008	1.4017 ± 0.0007	1.3959 ± 0.0007	CC1CCCO1 (stereo unspecified) [2-methyltetrahydrofuran]
883.79 ± 0.62 kg/m3	0.875 ± 0.014 mPa·s	873.95 ± 0.64 kg/m3	0.752 ± 0.012 mPa·s	863.62 ± 0.66 kg/m3	0.658 ± 0.011 mPa·s	143.4 ± 2.2 J/K/mol	145.2 ± 2.3 J/K/mol	147.8 ± 2.3 J/K/mol	150.2 ± 2.3 J/K/mol	152.6 ± 2.4 J/K/mol	156 ± 2.4 J/K/mol	157.6 ± 2.4 J/K/mol	159.9 ± 2.5 J/K/mol	1.4235 ± 0.0008	1.4171 ± 0.0007	1.4119 ± 0.0007	C1CCOCC1 [tetrahydropyran]
1100.42 ± 0.23 kg/m3	2.213 ± 0.033 mPa·s	1090.41 ± 0.22 kg/m3	1.812 ± 0.027 mPa·s	1080.26 ± 0.21 kg/m3	1.513 ± 0.023 mPa·s	149.9 ± 2.3 J/K/mol	150.4 ± 2.3 J/K/mol	151.5 ± 2.3 J/K/mol	152.2 ± 2.4 J/K/mol	152.9 ± 2.4 J/K/mol	153.7 ± 2.4 J/K/mol	154.7 ± 2.4 J/K/mol	155.6 ± 2.4 J/K/mol	1.4815 ± 0.0007	1.475 ± 0.0007	1.4706 ± 0.0006	C[S+](C)[O-] [dimethyl sulfoxide]
